# From US7351742B2, “Sulfonamide derivatives for the treatment of diseases” (Pfizer Inc., priority 2004, dated 2008)
# Molecular target: T1, human β2 adrenergic receptor (Homo sapiens, UniProt P07550)
# T1 construct: expressed in transfected cells; host or cells: CHO (Chinese Hamster Ovary) cells, CHOhβ2
# Assay: β2 cAMP EC50 in CHO cells recombinantly expressing the human β2 adrenergic receptor (cAMP-Flashplate)
# Format: cell-based
# Conditions: CHOhβ2 cells, 1 hour incubation
# Experimental: According to another alternative, the agonist potency for the β2 receptor of the compounds of the formula (1) may also be determined by the measure of the concentration of compound according to the present invention required to produce half maximal effect (EC50) for the β2 receptor.
# 10 mM/100% DMSO (dimethylsulfoxide) stock of compound is diluted to required top dose in 4% DMSO. This top dose is used to construct a 10-point semi-log dilution curve, all in 4% DMSO. Isoprenaline (Sigma, 1-5627) was used as a standard in every experiment and for control wells on each plate. Data was expressed as % Isoprenaline response.
# CHO (Chinese Hamster Ovary) cells recombinantly expressing the human β2 adrenergic receptor (from Kobilka et al., PNAS 84: 46-50, 1987 and Bouvier et al., Mol Pharmacol 33: 133-139 1988 CHOhβ2) were grown in Dulbeccos MEM/NUT MIX F12 (Gibco, 21331-020) supplemented with 10% foetal bovine serum (Sigma, F4135, Lot 90K8404 Exp 09/04), 2 mM glutamine (Sigma, G7513), 500 μg/ml geneticin (Sigma, G7034) and 10 μg/ml puromycin (Sigma, P8833). Cells were seeded to give about 90% confluency for testing.
# 25 μl/well each dose of compound was transferred into a cAMP-Flashplate® (NEN, SMP004B), with […] as basal controls and 100 nM Isoprenaline as max controls. This was diluted 1:2 by the addition of 25 μl/well PBS. Cells were trypsinised (0.25% Sigma, T4049), washed with PBS (Gibco, 14040-174) and resuspended in stimulation buffer (NEN, SMP004B) to give 1×10^6 cells/ml CHOhB2. Compounds were incubated with 50 μl/well cells for 1 hour. Cells were then lysed by the addition of 100 μl/well detection buffer (NEN, SMP004B) containing 0.18 μCi/ml ^125I-cAMP (NEN, NEX-130) and plates were incubated at room temperature for a further 2 hours. The amount of ^125I-cAMP bound to the Flashplate® was quantified using a Topcount NXT (Packard), normal counting efficiency for 1 minute. Dose-response data was expressed as % Isoprenaline activity and fitted using a four parameter sigmoid fit.
# T1 sequence (P07550 whole entry): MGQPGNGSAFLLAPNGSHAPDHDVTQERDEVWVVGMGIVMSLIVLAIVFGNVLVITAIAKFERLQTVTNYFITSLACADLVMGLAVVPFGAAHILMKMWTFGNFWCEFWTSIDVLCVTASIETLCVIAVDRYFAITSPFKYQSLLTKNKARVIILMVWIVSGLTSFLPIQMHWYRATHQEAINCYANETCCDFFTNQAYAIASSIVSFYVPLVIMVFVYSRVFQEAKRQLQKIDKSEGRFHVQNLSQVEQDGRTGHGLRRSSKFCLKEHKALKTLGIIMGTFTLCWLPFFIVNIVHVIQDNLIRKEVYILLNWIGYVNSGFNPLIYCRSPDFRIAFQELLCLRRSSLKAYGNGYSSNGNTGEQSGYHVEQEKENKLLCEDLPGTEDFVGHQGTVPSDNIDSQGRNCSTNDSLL
row,SMILES,EC50
1,"CC(C)(Cc1cccc(CC(=O)NCc2ccccc2)c1)NC[C@H](O)c1ccc(O)c(NS(C)(=O)=O)c1 [Example 1, N-Benzyl-2-(3-{2-[((2R)-2-hydroxy-2-{4-hydroxy-3-[(methylsulfonyl)amino]phenyl}ethyl)amino]-2-methylpropyl}phenyl)acetamide]",20 pM
2,"COc1ccc(CNC(=O)Cc2cccc(CC(C)(C)NC[C@H](O)c3ccc(O)c(NS(C)(=O)=O)c3)c2)cc1 [Example 2, 2-(3-{2-[((2R)-2-hydroxy-2-{4-hydroxy-3-[(methylsulfonyl)amino]phenyl}ethyl)amino]-2-methylpropyl}phenyl)-N-(4-methoxybenzyl)acetamide]",30 pM
3,"Cc1ccc(CNC(=O)Cc2cccc(CC(C)(C)NC[C@H](O)c3ccc(O)c(NS(C)(=O)=O)c3)c2)cc1 [Example 6, 2-(3-{2-[((2R)-2-hydroxy-2-{4-hydroxy-3-[(methylsulfonyl)amino]phenyl}ethyl)amino]-2-methylpropyl}phenyl)-N-(4-methylbenzyl)acetamide]",70 pM
4,"CC(C)(Cc1cccc(CC(=O)NCc2ccc(Cl)cc2)c1)NC[C@H](O)c1ccc(O)c(NS(C)(=O)=O)c1 [Example 12, N-(4-Chlorobenzyl)-2-(3-{2-[((2R)-2-hydroxy-2-{4-hydroxy-3-[(methylsulfonyl)amino]phenyl}ethyl)amino]-2-methylpropyl}phenyl)acetamide]",50 pM
5,"CC(C)(Cc1cccc(CC(=O)NCc2ccc(F)cc2)c1)NC[C@H](O)c1ccc(O)c(NS(C)(=O)=O)c1 [Example 15, N-(4-Fluorobenzyl)-2-(3-{2-[((2R)-2-hydroxy-2-{4-hydroxy-3-[(methylsulfonyl)amino]phenyl}ethyl)amino]-2-methylpropyl}phenyl)acetamide]",30 pM
6,"CC(C)(Cc1cccc(CC(=O)NCc2ccc(Cl)c(Cl)c2)c1)NC[C@H](O)c1ccc(O)c(NS(C)(=O)=O)c1 [Example 17, N-(3,4-Dichlorobenzyl)-2-(3-{2-[((2R)-2-hydroxy-2-{4-hydroxy-3-[(methylsulfonyl)amino]phenyl}ethyl)amino]-2-methylpropyl}phenyl)acetamide]",80 pM
7,"CC(C)(Cc1cccc(CC(=O)NCCc2ccccc2)c1)NC[C@H](O)c1ccc(O)c(NS(C)(=O)=O)c1 [Example 25, 2-(3-{2-[((2R)-2-Hydroxy-2-{4-hydroxy-3-[(methylsulfonyl)amino]phenyl}ethyl)amino]-2-methylpropyl}phenyl)-N-(2-phenylethyl)acetamide]",80 pM
8,"CC(C)(Cc1cccc(CC(=O)NCCCc2ccccc2)c1)NC[C@H](O)c1ccc(O)c(NS(C)(=O)=O)c1 [Example 26, 2-(3-{2-[((2R)-2-Hydroxy-2-{4-hydroxy-3-[(methylsulfonyl)amino]phenyl}ethyl)amino]-2-methylpropyl}phenyl)-N-(3-phenylpropyl)acetamide]",90 pM
9,"CSc1ccccc1CNC(=O)Cc1cccc(CC(C)(C)NC[C@H](O)c2ccc(O)c(NS(C)(=O)=O)c2)c1 [Example 31, 2-(3-{2-[((2R)-2-Hydroxy-2-{4-hydroxy-3-[(methylsulfonyl)amino]phenyl}ethyl)amino]-2-methylpropyl}phenyl)-N-[2-(methylthio)benzyl]acetamide]",40 pM
10,"Cc1ccc(CNC(=O)Cc2cccc(C[C@@H](C)NC[C@H](O)c3ccc(O)c(NS(C)(=O)=O)c3)c2)cc1C [Example 38, N-(3,4-Dimethylbenzyl)-2-(3-{(2R)-2-[((2R)-2-hydroxy-2-{4-hydroxy-3-[(methylsulfonyl)amino]phenyl}ethyl)amino]propyl}phenyl)acetamide]",60 pM
11,"C[C@H](Cc1cccc(CC(=O)NCc2ccc(Cl)c(Cl)c2)c1)NC[C@H](O)c1ccc(O)c(NS(C)(=O)=O)c1 [Example 39, N-(3,4-Dichlorobenzyl)-2-(3-{(2R)-2-[((2R)-2-hydroxy-2-{4-hydroxy-3-[(methylsulfonyl)amino]phenyl}ethyl)amino]propyl}phenyl)acetamide]",50 pM
12,"C[C@H](Cc1cccc(CC(=O)NCc2ccc(C(F)(F)F)cc2)c1)NC[C@H](O)c1ccc(O)c(NS(C)(=O)=O)c1 [Example 45, 2-(3-{(2R)-2-[((2R)-2-Hydroxy-2-{4-hydroxy-3-[(methylsulfonyl)amino]phenyl}ethyl)amino]propyl}phenyl)-N-[4-(trifluoromethyl)benzyl]acetamide]",60 pM
13,"C[C@H](Cc1cccc(CC(=O)NCc2ccccn2)c1)NC[C@H](O)c1ccc(O)c(NS(C)(=O)=O)c1 [Example 60, 2-(3-{(2R)-2-[((2R)-2-Hydroxy-2-{4-hydroxy-3-[(methylsulfonyl)amino]phenyl}ethyl)amino]propyl}phenyl)-N-(pyridin-2-ylmethyl)acetamide]",20 pM
14,"CC(C)(Cc1ccc(CC(=O)NCc2cc(C(F)(F)F)ccc2Cl)cc1)NC[C@H](O)c1ccc(O)c(NS(C)(=O)=O)c1 [Example 67, N-[2-Chloro-5-(trifluoromethyl)benzyl]-2-(4-{2-[((2R)-2-hydroxy-2-{4-hydroxy-3-[(methylsulfonyl)amino]phenyl}ethyl)amino]-2-methylpropyl}phenyl)acetamide]",80 pM
15,"C[C@H](Cc1ccc(CC(=O)NCc2ccccc2)cc1)NC[C@H](O)c1ccc(O)c(NS(C)(=O)=O)c1 [Example 76, N-Benzyl-2-(4-{(2R)-2-[((2R)-2-hydroxy-2-{4-hydroxy-3-[(methylsulfonyl)amino]phenyl}ethyl)amino]propyl}phenyl)acetamide]",20 pM
